# Experiments:
# [1] = system: mice; test: Acetic acid-induced writhing test; format: in vivo
# Method: (§1) FIG. 9: Analgesic effect of Serodolin in the acetic acid-induced writhing test. In this test, nociception was induced by an intraperitoneally injection (ip) of 0.1 ml/10 g acid acetic solution (10 ml/kg) in peripheral origin. Serodolin at increasing dosage was administrated by oral (po), intravenous (iv) or subcutaneous (sc) route before acid acetic injection (upper panel). Positive control animals were pretreated morphine (3 mg/kg, sc) 10 minutes before acetic acid. Five minutes after i.p. injection of acetic acid the number of writhing was recorded for 10 minutes. Data mean±SEM of values obtained from a representative experiment (n=10 animals/group). ****p<0.0001 ***p<0.001 **p<0.01 *p<0.05 as compared with the control group (Vh).
# as §1, with “16:” for “9:”, “MOA51” for “Serodolin”, “i.p.injection” for “i.p. injection”, “animals/group).” for “animals/group). ****p<0.0001 ***p<0.001”, “**p<0.01” for “**p<0.01 *p<0.05”
# Writhing tests: Mice (25-35 g). Groups of mice (n=10) received by oral, subcutaneous or intravenous route Serodolin at different doses (0.1-10 mg/kg) one hour before intraperitoneally injection of 1% acetic acid in a volume of 10 ml/kg. Control group received vehicle (10 ml/kg, solution of 20% DMSO and 5% tween 80). The test was carried out 5 minutes later after acid acetic injection. The characteristic writhing responses have been observed individually and counted for 10 minutes.
# Analgesic activity was first evaluated using the acetic acid abdominal constriction test (writhing test), a chemical model of visceral pain. We evaluated the dose-response effect of Serodolin following single oral, intravenous and subcutaneous administration of the compound one hour before injection of acetic acid.
# Analgesic activity was evaluated using the acetic acid abdominal constriction test (writhing test), a chemical model of visceral pain. We evaluated the dose-response effect of MOA51 following single oral, intravenous and subcutaneous administration of the compound one hour before injection of acetic acid. MOA51 administered by the oral route induced statistically significant dose-dependent decreases in the number of writhings at and above the dose of 1 mg/kg. By the intravenous route, MOA51 induced dose-dependent decreases in the number of writhings at and above the dose of 0.1 mg/kg.
# [2] = system: C57BL/6 mice; test: Spared Nerve Injury (SNI) neuropathic pain model, Von Frey; details: s.c.
# Method: Pregabalin, vehicle or compounds solutions are subcutaneously administrated for 8 consecutive days. • (A) Mechanical response threshold after the first administration (D+10). […] Positive control animals were treated with Pregabalin (5 mg/kg, sc). Statistical differences are indicated compared to vehicle group (Two-way RM ANOVA followed by Bonferroni post-hoc test: ***p<0.001, ** p<0.01, * p<0.05). […] Positive control animals were treated with Pregabalin (5 mg/kg, sc). Statistical differences are indicated compared to vehicle group (Two-way RM ANOVA followed by Bonferroni post-hoc test: ***p<0.001, ** p<0.01, * p<0.05). […] (Two-way RM ANOVA followed by Bonferroni post-hoc test: ***p<0.001, ** p<0.01, * p<0.05)
# MOA51 and Serodolin (AIC01) compounds were diluted in NDT solution (NaCl 0.9%—DMSO 20%—Tween80 5%). […] AIC01 was resuspended at 0.5 mg/mL and administrated at a ratio of 100 μl per 10 g (dose of 5 mg/kg).
# Experiment starts with 8 weeks old male C57B16J mice (from Charles River). Study was performed on 40 mice (2 mice were excluded during the study due to health guidelines) divided in 4 randomized groups. • Group A: s.c. injection at 5 mg/kg of pregabalin. • Group B: s.c. injection at 0.5 mg/kg of MOA51. • Group C: s.c. injection at 5 mg/kg of Serodolin (AIC01). • Group D: s.c. injection of NDT solution (referred as Vehicle hereafter).
# Compounds solutions, pregabalin and vehicle were subcutaneously administrated (100 μl/10 g) for 9 consecutive days, starting 10 days after surgery. Ligature and transection of the common peroneal and tibial distal branches of the sciatic nerve was made leaving the sural branch intact. 7 days post-surgery, a decrease of threshold response to Von Frey filaments of ipsilateral hind-paw was observed corresponding to neuropathic pain apparition (mechanical allodynia). Mechanical threshold response of mice were measured with calibrated Von Frey filaments using the up/down method. Experimenter was blind to mice treatment. Measures are performed as follow: one baseline measure before surgery, one measure at D+10, D+12, D+14, D+16 and D+18 before drug's administration, and 1 h, 2 h post-drug administration. A supplementary measure 4 h post-drug administration was performed at D+10 and D+18.
# Two-way RM ANOVA (followed by Bonferroni post-hoc test) was used to analysed time course response at D+10 and D+18. Area under the curve was determined with the 1 h and 2 h post-drug administration measures to investigated tolerance of repeated administration of compounds
# [3] = system: Sprague-Dawley male rats; test: Formalin induced inflammatory pain model; format: in vivo; details: single s.c., Serodolin 10 mg/kg, MOA51 1 mg/kg, morphine
# Method: FIG. 18: Effect of a single administration of Serodolin (AIC01) or MOA51 in the formalin test in rats. Effect of a single subcutaneous administration of Serodolin (AIC01) or MOA51 in the formalin test in rats. In this test, Sprague-Dawley male rats received unilateral injection of a 2.5% formalin solution (50 μl) into the plantar aspect of the hindpaw on testing day (i.e. D0). Control group received Vehicle (20% DMSO/5% Tween 80/NaCl). Serodolin was subcutaneously (sc) administrated at 10 mg/kg and MOA51 at 1 mg/kg. Positive control animals were treated with morphine (3 mg/kg, sc). Paw licking time was measured. Results are expressed as mean±s.e.m. Percentage are expressed as decreased as compared to the vehicle-treated group and represented as figure (B). ***: p<0.001 as compared to the vehicle-treated group, Bonferroni's test after significant Two-way Repeated Measures ANOVA. NS: Non-significant.
# Sprague-Dawley male rats (n=10 rats per group) received unilateral injection of a 2.5% formalin solution (50 μl) into the plantar aspect of the hindpaw on testing day (i.e. D0). Experience was separated into 4 groups of animals. Formalin animals+vehicle-treated group; […]—Formalin animals+Sponsor's Serodolin (10 mg/kg), s.c.—Formalin animals+Sponsor's MOA51 (1 mg/kg), s.c.—Formalin animals+internal validator-treated group (Morphine at 4 mg/Kg, s.c.). Single subcutaneous administration of the Vehicle and Sponsor's Compound 30 min (or other timing depending on Sponsor's design) before formalin injection on testing day (i.e. D0)/Subcutaneous administration of Morphine 30 min before formalin injection on testing day (i.e. D0). Hindpaw licking time recorded in consecutive 5 minutes periods from 0 to 5 minutes (early phase) and 17 to 27 minutes (late phase) after formalin injection.
# We evaluated the effect of Serodolin as well as MOA51 in rats in the formalin test, an acute and tonic pain model based on the use of a chemical stimulus. Subcutaneous injection of formalin into the right hindpaw produces a biphasic painful response of increasing and decreasing intensity for about 30 minutes after the injection. […] Although not significant, Serodolin, MOA51 and morphine have an inhibitory effect (−40%, −35% and −57% respectively) during the early phase.
# [4] = system: mouse; test: Effect on body temperature; format: in vivo
# Description: FIG. 13: Evaluation of the effect of Serodolin on body temperature.
# FIG. 17: Evaluation of the effect of MOA51 on body temperature. Results expressed in ° C.
# The time course of the effect of Serodolin on the body temperature has been evaluated in the mouse following intravenous administration.
# [5] = system: HEK-293 mock cells; test: Control in mock-transfected HEK-293 cells (cAMP, ERK phosphorylation); format: cell-based, human
# Method: ERK phosphorylation was monitored by western blotting after treatment of cells with 10 μM of ligands at different times ranging from 2 to 60 minutes. […] The kinetics of ERK phosphorylation elicited by 5-CT, Serodolin and MOA-51 were very similar: activation was fast and transient, and reached a pick between 2 and 7 minutes after drug exposure. However, ERK phosphorylation-induced by Serodolin and MOA-51 was more protracted compared to 5-CT, the reference agonist.
compound,measurement,setting,value
O=C(c1ccc(F)cc1)C1CCN(Cn2c(=O)[nH]c3ccccc32)CC1 [MOA51],"writhings at the top dose, intravenous route","[1]; 10 mg/kg, intravenous",no further acetic acid-induced writhings were observed
same,"dose giving decrease in number of writhings, intravenous route","[1]; intravenous, one hour before acetic acid",≥ 0.1 mg/kg
same,"dose giving significant decrease in number of writhings, oral route","[1]; oral, one hour before acetic acid",≥ 1 mg/kg
same,"dose giving significant decrease in number of writhings, subcutaneous route","[1]; s.c., one hour before acetic acid",≥ 1 mg/kg
same,"writhings at the top dose, subcutaneous route","[1]; top dose, subcutaneous",absence of acetic acid-induced writhings
same,tolerance after repetitive administration (AUC),[2]; 9 consecutive days,didn't present any tolerance effect after repetitive administration
same,mechanical response threshold vs vehicle,"[2]; first (D+10) and last (D+18) administration, 1 h and 2 h",significant increase in the mechanical threshold response
same,"inhibitory effect on paw licking, early phase","[3]; 0 to 5 minutes, not significant",−35%
same,"inhibition of licking, late phase",[3]; 17 to 27 minutes,−78%
same,"decrease in body temperature, Emax","[4]; 0.1 mg/kg, at 30 min, not statistically significant",−2.3 °C
same,"decrease in body temperature, Emax","[4]; 0.3 mg/kg, at 30 min",−5.4 °C
same,"decrease in body temperature, Emax","[4]; 1 mg/kg, at 180 min",−7.2 °C
same,ERK phosphorylation in HEK-293 mock cells,[5],"neither Serodolin, nor MOA-51 were able to induce ERK phosphorylation"

# Reference: US20240199555A1, “APPLICATIONS OF BIASED LIGANDS OF THE SEROTONIN 5-HT7 RECEPTOR FOR THE TREATMENT OF PAIN, MULTIPLE SCLEROSIS AND THE CONTROL OF THERMOREGULATION” (Centre National de la Recherche Scientifique, priority 2021, published 2024)
